Patent US20040253308A1, “Surface-treated modafinil particles” (Barr Laboratories, Inc., priority 2003, published 2004)

Columns and labels:
monkeys = settings: single administration (Duteil et al.); cited from earlier work
[1] = Particle size determination (Hiac/Royco system); type: physicochemical; settings: production lot used for FIG. 1 tablets
Procedure: Particle size can be determined by various methods known to those in the art, such as, but not limited to, laser particle size detectors. Particle size, as defined herein, is determined using a Hiac/Royco system, which includes the Model 9064 particle counter and the Model 3000A liquid syringe sampler (11801 Tech Road, Silver Spring, Md. 20904, U.S.A.).
Particle size was determined using a Hiac/Royco system, which includes the Model 9064 particle counter and the Model 3000A liquid syringe sampler (11801 Tech Road, Silver Spring, Md. 20904, U.S.A.). Samples were prepared in water saturated with modafinil. For each sample preparation, five consecutive readings were measured. The test was done in triplicate and the average was reported.

mice = settings: single administration (Duteil et al.); cited from earlier work

NC(=O)C[S+]([O-])C(c1ccccc1)c1ccccc1 (stereo not shown) [modafinil, 2-(benzhydrylsulfinyl)acetamide]
nocturnal activity (monkeys): increased nocturnal activity
median particle size ([1]; pretreated modafinil particles): 148 μm
diameter exceeded by 5% of the total of pretreated modafinil particles [1]: 277 μm
locomotor activity (mice): increased locomotor activity
